Measurements taken from US20240158446A1, “CYCLIC COMPOUND HAVING SELECTIVE INHIBITORY ACTION ON KRAS OVER HRAS AND NRAS” (CHUGAI SEIYAKU KABUSHIKI KAISHA, priority 2021, published 2024).
*1 amine or outer side, *2 acyl side, *3 side chain or, on linkers, in order; H or OH if unused. Where a SMILES comes first, the peptide text is derived from it. Bridges are numbered along the chain shown (N, C = ends). [ ]: non-standard residue; d: D form. The star is where a group is joined. hPhe(3-Cl-4-CF3) = N[C@@H](CCc1ccc(C(F)(F)F)c(Cl)c1)C(=O)O; NPrPhe(4-CF3) = CCCN[C@@H](Cc1ccc(C(F)(F)F)cc1)C(=O)O; Pro(4-spirocPr) = O=C(O)[C@@H]1CC2(CC2)CN1; Morpholine(3S-CO) = O=C(O)[C@@H]1COCCN1; Pip(4,4-F2) = O=C(O)[C@@H]1CC(F)(F)CCN1; NMeGly(cPent) = CN[C@H](C(=O)O)C1CCCC1; X44 = CC1(C)CN([*:1])[C@@H]1C(=O)[*:2]; Hyp = O=C(O)[C@@H]1C[C@@H](O)CN1; NMeD = CN[C@@H](CC(=O)O)C(=O)O; NMeL = CN[C@@H](CC(C)C)C(=O)O; X12 = N#CCN(CC(=O)[*:2])[*:1]; Pip = O=C(O)[C@@H]1CCCCN1; Morpholide = C1CN(*)CCO1; Ac5c = NC1(C(=O)O)CCCC1; Aze = O=C(O)[C@@H]1CCN1; NcPrGly = O=C(O)CNC1CC1; NPrGly = CCCNCC(=O)O; NEtG = CCNCC(=O)O; Sar = CNCC(=O)O

Legend:
[1] = biological target: GDP-bound HRAS wild-type protein (Homo sapiens, UniProt P01112); assay: Binding to HRAS by surface plasmon resonance (SPR), Single Cycle Kinetics; conditions: SPR, GDP-bound HRAS wild-type protein vs GDP-bound KRAS wild-type protein
Chain of GDP-bound HRAS wild-type protein (P01112 whole entry): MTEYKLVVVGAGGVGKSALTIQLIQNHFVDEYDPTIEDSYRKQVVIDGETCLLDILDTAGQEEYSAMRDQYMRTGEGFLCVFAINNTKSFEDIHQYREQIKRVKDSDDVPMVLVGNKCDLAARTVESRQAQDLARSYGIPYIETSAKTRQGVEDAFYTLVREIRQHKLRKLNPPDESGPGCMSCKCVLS

[2] = biological target: GDP-bound KRAS wild-type protein (Homo sapiens, UniProt P01116); assay: Binding to KRAS by surface plasmon resonance (SPR), Single Cycle Kinetics; conditions: SPR Single Cycle Kinetics, GDP-bound KRAS wild-type protein, 1:1 binding model; read-out: KRAS KD
Chain of GDP-bound KRAS wild-type protein (P01116 whole entry): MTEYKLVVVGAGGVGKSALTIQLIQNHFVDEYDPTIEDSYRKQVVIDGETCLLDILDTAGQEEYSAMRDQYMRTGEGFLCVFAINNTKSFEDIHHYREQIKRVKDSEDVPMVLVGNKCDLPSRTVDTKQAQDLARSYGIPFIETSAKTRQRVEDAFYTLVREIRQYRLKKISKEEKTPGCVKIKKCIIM

[3] = biological target: GDP-bound NRAS wild-type protein (Homo sapiens, UniProt P01111); assay: Binding to NRAS by surface plasmon resonance (SPR), Single Cycle Kinetics; conditions: SPR, GDP-bound NRAS wild-type protein vs GDP-bound KRAS wild-type protein
Chain of GDP-bound NRAS wild-type protein (P01111 whole entry): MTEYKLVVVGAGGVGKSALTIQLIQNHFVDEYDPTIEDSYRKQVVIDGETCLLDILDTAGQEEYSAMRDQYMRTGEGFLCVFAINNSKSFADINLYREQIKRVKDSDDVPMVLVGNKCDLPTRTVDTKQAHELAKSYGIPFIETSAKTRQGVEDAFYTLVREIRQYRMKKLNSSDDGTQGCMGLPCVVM

SMILES | HRAS/KRAS (ratio of KD value for HRAS to KD value for KRAS) [1] | Kd [2] [nM] | NRAS/KRAS (ratio of KD value for NRAS to KD value for KRAS) [3]
CCCN1C(=O)CN(C)C(=O)CN(C2CC2)C(=O)[C@H]([C@@H](C)CC)NC(=O)[C@H](CC(C)C)N(C)C(=O)C[C@@H](C(=O)N2CCOCC2)N(C)C(=O)[C@H](C2CCCC2)N(C)C(=O)C2(CCCC2)NC(=O)[C@@H]2CCCN2C(=O)[C@H](CCc2ccc(C(F)(F)F)c(Cl)c2)NC(=O)CN(C)C(=O)[C@@H]1Cc1ccc(C(F)(F)F)cc1 [PP0252] ([NMeL]I[NcPrGly][Sar][NPrPhe(4-CF3)][Sar][hPhe(3-Cl-4-CF3)]P[Ac5c][NMeGly(cPent)][NMeD]-Morpholide; lactam N-11) | B (a compound having 3 or more and less than 10 is denoted as B) | 0.34 | B (a compound having 3 or more and less than 10 is denoted as B)
CCCN1CC(=O)N(C)CC(=O)N(CCC)[C@@H](Cc2ccc(C(F)(F)F)cc2)C(=O)N(C)CC(=O)N[C@@H](CCc2ccc(C(F)(F)F)c(Cl)c2)C(=O)N2CCC[C@H]2C(=O)NC2(CCCC2)C(=O)N(C)[C@@H](C2CCCC2)C(=O)N(C)[C@H](C(=O)N2CCOCC2)CC(=O)N(C)[C@@H](CC(C)C)C(=O)N[C@@H]([C@@H](C)CC)C1=O [PP0253] ([NMeL]I[NPrGly][Sar][NPrPhe(4-CF3)][Sar][hPhe(3-Cl-4-CF3)]P[Ac5c][NMeGly(cPent)][NMeD]-Morpholide; lactam N-11) | B (a compound having 3 or more and less than 10 is denoted as B) | 0.55 | B (a compound having 3 or more and less than 10 is denoted as B)
CCCN1C(=O)CN(C)C(=O)CN(CC#N)C(=O)[C@H]([C@@H](C)CC)NC(=O)[C@H](CC(C)C)N(C)C(=O)C[C@@H](C(=O)N2CCOCC2)N(C)C(=O)[C@H](C2CCCC2)N(C)C(=O)C2(CCCC2)NC(=O)[C@@H]2CCCN2C(=O)[C@H](CCc2ccc(C(F)(F)F)c(Cl)c2)NC(=O)CN(C)C(=O)[C@@H]1Cc1ccc(C(F)(F)F)cc1 [PP0254] ([NMeL]I[X12][Sar][NPrPhe(4-CF3)][Sar][hPhe(3-Cl-4-CF3)]P[Ac5c][NMeGly(cPent)][NMeD]-Morpholide; lactam N-11) | C (A compound having a KD ratio of 0.1 or more and less than 3 is denoted as C) | 0.16 | B (a compound having 3 or more and less than 10 is denoted as B)
CCCN1C(=O)CN(C)C(=O)[C@H]2N(CC2(C)C)C(=O)[C@H]([C@@H](C)CC)NC(=O)[C@H](CC(C)C)N(C)C(=O)C[C@@H](C(=O)N2CCOCC2)N(C)C(=O)[C@H](C2CCCC2)N(C)C(=O)C2(CCCC2)NC(=O)[C@@H]2CCCN2C(=O)[C@H](CCc2ccc(C(F)(F)F)c(Cl)c2)NC(=O)CN(C)C(=O)[C@@H]1Cc1ccc(C(F)(F)F)cc1 [PP0256] ([NMeL]I[X44][Sar][NPrPhe(4-CF3)][Sar][hPhe(3-Cl-4-CF3)]P[Ac5c][NMeGly(cPent)][NMeD]-Morpholide; lactam N-11) | C (A compound having a KD ratio of 0.1 or more and less than 3 is denoted as C) | 0.99 | B (a compound having 3 or more and less than 10 is denoted as B)
CCCN1C(=O)[C@@H]2CCN2C(=O)CN(CC)C(=O)[C@H]([C@@H](C)CC)NC(=O)[C@H](CC(C)C)N(C)C(=O)C[C@@H](C(=O)N2CCOCC2)N(C)C(=O)[C@H](C2CCCC2)N(C)C(=O)C2(CCCC2)NC(=O)[C@@H]2CCCN2C(=O)[C@H](CCc2ccc(C(F)(F)F)c(Cl)c2)NC(=O)CN(C)C(=O)[C@@H]1Cc1ccc(C(F)(F)F)cc1 [PP0259] ([NMeL]I[NEtG][Aze][NPrPhe(4-CF3)][Sar][hPhe(3-Cl-4-CF3)]P[Ac5c][NMeGly(cPent)][NMeD]-Morpholide; lactam N-11) | B (a compound having 3 or more and less than 10 is denoted as B) | 0.42 | C (A compound having a KD ratio of 0.1 or more and less than 3 is denoted as C)
CCCN1C(=O)CN(C)C(=O)CN(C)C(=O)[C@H]([C@@H](C)CC)NC(=O)[C@H](CC(C)C)N(C)C(=O)C[C@@H](C(=O)N2CCOCC2)N(C)C(=O)[C@H](C2CCCC2)N(C)C(=O)C2(CCCC2)NC(=O)[C@@H]2CCN2C(=O)[C@H](CCc2ccc(C(F)(F)F)c(Cl)c2)NC(=O)CN(C)C(=O)[C@@H]1Cc1ccc(C(F)(F)F)cc1 [PP0260] ([NMeL]I[Sar][Sar][NPrPhe(4-CF3)][Sar][hPhe(3-Cl-4-CF3)][Aze][Ac5c][NMeGly(cPent)][NMeD]-Morpholide; lactam N-11) | C (A compound having a KD ratio of 0.1 or more and less than 3 is denoted as C) | 0.39 | B (a compound having 3 or more and less than 10 is denoted as B)
CCCN1C(=O)CN(C)C(=O)CN(C)C(=O)[C@H]([C@@H](C)CC)NC(=O)[C@H](CC(C)C)N(C)C(=O)C[C@@H](C(=O)N2CCOCC2)N(C)C(=O)[C@H](C2CCCC2)N(C)C(=O)C2(CCCC2)NC(=O)[C@@H]2CC3(CC3)CN2C(=O)[C@H](CCc2ccc(C(F)(F)F)c(Cl)c2)NC(=O)CN(C)C(=O)[C@@H]1Cc1ccc(C(F)(F)F)cc1 [PP0261] ([NMeL]I[Sar][Sar][NPrPhe(4-CF3)][Sar][hPhe(3-Cl-4-CF3)][Pro(4-spirocPr)][Ac5c][NMeGly(cPent)][NMeD]-Morpholide; lactam N-11) | C (A compound having a KD ratio of 0.1 or more and less than 3 is denoted as C) | 0.14 | B (a compound having 3 or more and less than 10 is denoted as B)
CCCN1C(=O)CN(C)C(=O)CN(C)C(=O)[C@H]([C@@H](C)CC)NC(=O)[C@H](CC(C)C)N(C)C(=O)C[C@@H](C(=O)N2CCOCC2)N(C)C(=O)[C@H](C2CCCC2)N(C)C(=O)C2(CCCC2)NC(=O)[C@@H]2C[C@@H](OC)CN2C(=O)[C@H](CCc2ccc(C(F)(F)F)c(Cl)c2)NC(=O)CN(C)C(=O)[C@@H]1Cc1ccc(C(F)(F)F)cc1 [PP0262] ([NMeL]I[Sar][Sar][NPrPhe(4-CF3)][Sar][hPhe(3-Cl-4-CF3)][Hyp](Me)[Ac5c][NMeGly(cPent)][NMeD]-Morpholide; lactam N-11) | B (a compound having 3 or more and less than 10 is denoted as B) | 0.044 | B (a compound having 3 or more and less than 10 is denoted as B)
CCCN1C(=O)CN(C)C(=O)CN(C)C(=O)[C@H]([C@@H](C)CC)NC(=O)[C@H](CC(C)C)N(C)C(=O)C[C@@H](C(=O)N2CCOCC2)N(C)C(=O)[C@H](C2CCCC2)N(C)C(=O)C2(CCCC2)NC(=O)[C@@H]2CCCCN2C(=O)[C@H](CCc2ccc(C(F)(F)F)c(Cl)c2)NC(=O)CN(C)C(=O)[C@@H]1Cc1ccc(C(F)(F)F)cc1 [PP0263] ([NMeL]I[Sar][Sar][NPrPhe(4-CF3)][Sar][hPhe(3-Cl-4-CF3)][Pip][Ac5c][NMeGly(cPent)][NMeD]-Morpholide; lactam N-11) | C (A compound having a KD ratio of 0.1 or more and less than 3 is denoted as C) | 0.47 | B (a compound having 3 or more and less than 10 is denoted as B)
CCCN1C(=O)CN(C)C(=O)CN(C)C(=O)[C@H]([C@@H](C)CC)NC(=O)[C@H](CC(C)C)N(C)C(=O)C[C@@H](C(=O)N2CCOCC2)N(C)C(=O)[C@H](C2CCCC2)N(C)C(=O)C2(CCCC2)NC(=O)[C@@H]2CC(F)(F)CCN2C(=O)[C@H](CCc2ccc(C(F)(F)F)c(Cl)c2)NC(=O)CN(C)C(=O)[C@@H]1Cc1ccc(C(F)(F)F)cc1 [PP0264] ([NMeL]I[Sar][Sar][NPrPhe(4-CF3)][Sar][hPhe(3-Cl-4-CF3)][Pip(4,4-F2)][Ac5c][NMeGly(cPent)][NMeD]-Morpholide; lactam N-11) | C (A compound having a KD ratio of 0.1 or more and less than 3 is denoted as C) | 0.42 | B (a compound having 3 or more and less than 10 is denoted as B)
CCCN1C(=O)CN(C)C(=O)CN(C)C(=O)[C@H]([C@@H](C)CC)NC(=O)[C@H](CC(C)C)N(C)C(=O)C[C@@H](C(=O)N2CCOCC2)N(C)C(=O)[C@H](C2CCCC2)N(C)C(=O)C2(CCCC2)NC(=O)[C@@H]2COCCN2C(=O)[C@H](CCc2ccc(C(F)(F)F)c(Cl)c2)NC(=O)CN(C)C(=O)[C@@H]1Cc1ccc(C(F)(F)F)cc1 [PP0265] ([NMeL]I[Sar][Sar][NPrPhe(4-CF3)][Sar][hPhe(3-Cl-4-CF3)][Morpholine(3S-CO)][Ac5c][NMeGly(cPent)][NMeD]-Morpholide; lactam N-11) | C (A compound having a KD ratio of 0.1 or more and less than 3 is denoted as C) | 0.28 | B (a compound having 3 or more and less than 10 is denoted as B)
CCCN1CC(=O)NC2(CCCC2)C(=O)N(C)[C@@H](C2CCCC2)C(=O)N(C)[C@H](C(=O)N2CCOCC2)CC(=O)N(C)[C@@H](CC(C)C)C(=O)N[C@@H]([C@@H](C)CC)C(=O)N(C)CC(=O)N(C)CC(=O)N(CCC)[C@@H](Cc2ccc(C(F)(F)F)cc2)C(=O)N(C)CC(=O)N[C@@H](CCc2ccc(C(F)(F)F)c(Cl)c2)C1=O [PP0267] ([NMeL]I[Sar][Sar][NPrPhe(4-CF3)][Sar][hPhe(3-Cl-4-CF3)][NPrGly][Ac5c][NMeGly(cPent)][NMeD]-Morpholide; lactam N-11) | B (a compound having 3 or more and less than 10 is denoted as B) | 0.87 | B (a compound having 3 or more and less than 10 is denoted as B)
